As a reminder, the IC50 is the point on the concentration scale where inhibition reaches its midpoint.

This is an account of results in ChEMBL document CHEMBL4190365, “Synthesis and antiproliferative properties of new hydrophilic esters of triterpenic acids” (Eur J Med Chem, 2017).

Activity calls are given as the source filed them. No cut-off for these calls is given here.

One test deals with CCRF-CEM. The test can be described thus: Cytotoxicity in human CEM cells assessed as reduction in cell viability incubated for 72 hrs by calcein AM cytotoxicity assay. Type of test: functional, cell-based.
A further test relates to MCF7. The test can be described thus: Cytotoxicity in human MCF7 cells assessed as reduction in cell viability incubated for 72 hrs by calcein AM cytotoxicity assay. Format: functional, cell-based. The note with it: Homo sapiens, MCF7, 72 h.
For a further test, the system named is HeLa. The test is described as follows: Cytotoxicity in human HeLa cells assessed as reduction in cell viability incubated for 72 hrs by calcein AM cytotoxicity assay. Format: functional, cell-based. The settings on record: Homo sapiens, HeLa, 72 h.
Test [1] has as its system G-361. The test can be described thus: Cytotoxicity in human G361 cells assessed as reduction in cell viability incubated for 72 hrs by calcein AM cytotoxicity assay. The note with it: Homo sapiens, G-361, 72 h. Type of test: functional, cell-based.
The subject of the next test is BJ. The test is described as follows: Cytotoxicity in human BJ cells assessed as reduction in cell viability incubated for 72 hrs by calcein AM cytotoxicity assay. Format: functional, cell-based. The settings on record: Homo sapiens, BJ, 72 h.
Test [2] concerns G-361. The test is described as follows: Induction of cell cycle arrest in human G361 cells assessed as increase in accumulation at subG1 phase at 1 uM incubated for 24 hrs by propidium iodide staining based flow cytometry. Type of test: functional. Background: A flow cytometer gives signals particle by particle.
The test system of test [3] is G-361. The test can be described thus: Induction of cell cycle arrest in human G361 cells assessed as increase in accumulation at subG1 phase at 10 uM incubated for 24 hrs by propidium iodide staining based flow cytometry. Format: functional.
The subject of test [4] is G-361. The test is described as follows: Induction of cell cycle arrest in human G361 cells assessed as increase in accumulation at G0/G1 phase at 1 uM incubated for 24 hrs by propidium iodide staining based flow cytometry. Format: functional.
Test [5] has as its system G-361. The test can be described thus: Induction of cell cycle arrest in human G361 cells assessed as increase in accumulation at G0/G1 phase at 10 uM incubated for 24 hrs by propidium iodide staining based flow cytometry. Type of test: functional.
Test [6] has as its system G-361. The test can be described thus: Induction of cell cycle arrest in human G361 cells assessed as reduction in accumulation at G2M phase at 1 uM incubated for 24 hrs by propidium iodide staining based flow cytometry. Format: functional.
The test system of test [7] is G-361. The test can be described thus: Induction of cell cycle arrest in human G361 cells assessed as reduction in accumulation at G2M phase at 10 uM incubated for 24 hrs by propidium iodide staining based flow cytometry. Format: functional.
Test [8] deals with G-361. The test is described as follows: Induction of apoptosis in human G361 cells assessed as induction of caspase-7 degradation in to cleaved fragments at 1 uM incubated for 24 hrs by Western blot method. Format: functional, cell-based. Background: Immunoblotting shows a protein as a band on a membrane.
Test [9] deals with G-361. The test is described as follows: Induction of apoptosis in human G361 cells assessed as induction of caspase-7 degradation in to cleaved fragments at 10 uM incubated for 24 hrs by Western blot method. Format: functional, cell-based.
The subject of test [10] is G-361. The test is described as follows: Induction of apoptosis in human G361 cells assessed as induction of caspase-3 expression at 1 uM incubated for 24 hrs by Western blot method. Format: functional, cell-based.
In test [11] the test system is G-361. The test can be described thus: Induction of apoptosis in human G361 cells assessed as induction of caspase-3 expression at 10 uM incubated for 24 hrs by Western blot method. Format: functional, cell-based.
Test [12] has as its system G-361. The test can be described thus: Induction of apoptosis in human G361 cells assessed as induction of PARP cleavage at 10 uM incubated for 24 hrs by Western blot method. Format: functional, cell-based.
Test [13] has as its system G-361. The test is described as follows: Induction of apoptosis in human G361 cells assessed as reduction total Rb protein levels at 10 uM incubated for 24 hrs by Western blot method. Format: functional, cell-based.
Test [14] deals with G-361. The test can be described thus: Induction of apoptosis in human G361 cells assessed as effect on Bcl2 protein levels at 10 uM incubated for 24 hrs by Western blot method. Format: functional, cell-based.
Test [15] has as its system G-361. The test is described as follows: Induction of apoptosis in human G361 cells assessed as effect on Bcl2 protein levels at 1 uM incubated for 24 hrs by Western blot method. Type of test: functional, cell-based.
Test [16] deals with G-361. The test is described as follows: Induction of apoptosis in human G361 cells assessed as reduction Mcl1 protein levels at 10 uM incubated for 24 hrs by Western blot method. Type of test: functional, cell-based.
The subject of test [17] is G-361. The test can be described thus: Induction of apoptosis in human G361 cells assessed as reduction Mcl1 protein levels at 1 uM incubated for 24 hrs by Western blot method. Format: functional, cell-based.
Test [18] has as its system G-361. The test is described as follows: Induction of apoptosis in human G361 cells assessed as increase in caspase3/7 activity at 10 uM using Ac-DEVD-AMC substrate incubated for 24 hrs by fluorometric assay relative to untreated control. Format: functional.
Test [19] deals with G-361. The test is described as follows: Induction of apoptosis in human G361 cells assessed as increase in caspase3/7 activity at 1 uM using Ac-DEVD-AMC substrate incubated for 24 hrs by fluorometric assay relative to untreated control. Type of test: functional.

With `C=C(C)[C@@H]1CC[C@]2(C(=O)O[C@@H]3O[C@H](COC(C)=O)[C@H](OC(C)=O)[C@H](OC(C)=O)[C@H]3OC(C)=O)CC[C@]3(C)[C@H](CC[C@@H]4[C@@]5(C)CC[C@H](O)C(C)(C)[C@@H]5CC[C@]43C)[C@@H]12`, the IC50 in the test with CCRF-CEM (Homo sapiens, CCRF-CEM, 72 h) was 9 µM; in the test with MCF7 it was 2.5 µM; with HeLa, 3.3 µM; in the test with G-361 [1], 3.4 µM; in the test on BJ it was over 50 µM. Moreover, the outcome in the test on G-361 [2], in the test with G-361 [3], in the test with G-361 [4], with G-361 [5], in the test on G-361 [6] and in the test with G-361 [7] was Active. For the same compound, the outcome in the test with G-361 [8], in the test on G-361 [9], in the test on G-361 [12], in the test on G-361 [13], in the test on G-361 [16] and in the test with G-361 [17] was Active. Further, the result in the test with G-361 [10], in the test on G-361 [11], in the test with G-361 [14], in the test with G-361 [15], in the test with G-361 [18] and in the test with G-361 [19] was inactive.
As for `CC(=O)O[C@H]1CC[C@]2(C)[C@H]3CC[C@@H]4C5=C(C(C)C)C(=O)C[C@]5(C(=O)OCCN5CCCCC5)CC[C@@]4(C)[C@]3(C)CC[C@H]2C1(C)C` [listing 1 of 2 here], the IC50 in the test with CCRF-CEM (ccrf-cem) was 16.2 µM; in the test on MCF7, 7 µM; in the test on HeLa, 8.7 µM; in the test with G-361 [1] it was 7 µM; with BJ, 49.1 µM. Further, the “fold change (FC)” value in the test on G-361 [18] is on record as “<=4”.
Consider `CC(=O)O[C@H]1CC[C@]2(C)[C@H]3CC[C@@H]4C5=C(C(C)C)C(=O)C[C@]5(C(=O)OCC(=O)OCc5ccccc5)CC[C@@]4(C)[C@]3(C)CC[C@H]2C1(C)C`, for which the IC50 in the test with CCRF-CEM (Homo sapiens, CCRF-CEM, 72 h) was 6 µM; in the test on MCF7, 1.8 µM; with HeLa, 2.8 µM; in the test on G-361 [1] it was 1.6 µM; in the test with BJ, over 50 µM. Also, the result in the test on G-361 [2], in the test with G-361 [3], with G-361 [4], with G-361 [5], in the test with G-361 [6] and in the test on G-361 [7] was Active. Besides, the outcome in the test on G-361 [8], in the test on G-361 [9], in the test on G-361 [12], in the test with G-361 [13], in the test on G-361 [16] and in the test with G-361 [17] was Active. In addition, the result in the test with G-361 [10], in the test on G-361 [11], in the test with G-361 [14] and in the test with G-361 [15] was inactive. Besides, the “fold change (FC)” value in the test on G-361 [19] was determined as 3.
For the compound `CC(=O)O[C@H]1CC[C@]2(C)[C@H]3CC[C@@H]4C5=C(C(C)C)C(=O)C[C@]5(C(=O)OCCN5CCCCC5)CC[C@@]4(C)[C@]3(C)CC[C@H]2C1(C)C` [listing 2 of 2 here], the outcome in the test with G-361 [2], in the test with G-361 [3], with G-361 [4], in the test with G-361 [5], in the test with G-361 [6] and in the test on G-361 [7] was Active. Moreover, the result with G-361 [12], with G-361 [13], in the test on G-361 [16] and in the test with G-361 [17] was Active. Besides, the result with G-361 [10], in the test with G-361 [11], in the test on G-361 [14] and in the test with G-361 [15] was inactive.
